Active and inactive are the calls of the source.
Key:
Paired box protein Pax-8 = Paired box protein Pax-8 (Homo sapiens, UniProt Q06710); assay: inhibitors of PAX8-driven TPO luciferase reporter, dose response, RMG-I cells, cherry-pick (AID 687027); type: functional, cell-based;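 note: luciferase reporter driven by Pax8 target thyroperoxidase promoter measured by SteadyGlo luminescence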
[1] = cytotoxicity in OVCAR8 ovarian cancer cells, dose response, PAX8 project, cell-based, plate reader, dry powder samples (AID 743197); type: functional; conditions: OVCAR-8
[2] = IOSE-T80 ovarian epithelial cell cytotoxicity, dose response, cytotoxicity control for PAX8 inhibitor project, plate reader, dry powder samples (AID 743045); type: functional, cell-based
[3] = NIH:OVCAR-3 ovarian cancer cell cytotoxicity, dose response, PAX8 inhibitor project, plate reader, dry powder samples (AID 743044); type: functional, cell-based
[4] = IGROV1 ovarian cancer cell cytotoxicity, dose response, PAX8 inhibitor project, plate reader, dry powder samples (AID 743043); type: functional, cell-based; conditions: IGROV-1
Fatty acid synthase [5] = biological target: T1, Fatty acid synthase (Homo sapiens, UniProt P49327); assay: FAS thioesterase domain inhibitors, dose response, biochemical, endpoint fluorescence intensity, uHTS hits (AID 624327); type: functional;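 note: fluorescence from hydrolysis of an O-methyl fluorescein acyl ester substrate by the enzyme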
T1 sequence (P49327 whole entry, the tested form may be a part): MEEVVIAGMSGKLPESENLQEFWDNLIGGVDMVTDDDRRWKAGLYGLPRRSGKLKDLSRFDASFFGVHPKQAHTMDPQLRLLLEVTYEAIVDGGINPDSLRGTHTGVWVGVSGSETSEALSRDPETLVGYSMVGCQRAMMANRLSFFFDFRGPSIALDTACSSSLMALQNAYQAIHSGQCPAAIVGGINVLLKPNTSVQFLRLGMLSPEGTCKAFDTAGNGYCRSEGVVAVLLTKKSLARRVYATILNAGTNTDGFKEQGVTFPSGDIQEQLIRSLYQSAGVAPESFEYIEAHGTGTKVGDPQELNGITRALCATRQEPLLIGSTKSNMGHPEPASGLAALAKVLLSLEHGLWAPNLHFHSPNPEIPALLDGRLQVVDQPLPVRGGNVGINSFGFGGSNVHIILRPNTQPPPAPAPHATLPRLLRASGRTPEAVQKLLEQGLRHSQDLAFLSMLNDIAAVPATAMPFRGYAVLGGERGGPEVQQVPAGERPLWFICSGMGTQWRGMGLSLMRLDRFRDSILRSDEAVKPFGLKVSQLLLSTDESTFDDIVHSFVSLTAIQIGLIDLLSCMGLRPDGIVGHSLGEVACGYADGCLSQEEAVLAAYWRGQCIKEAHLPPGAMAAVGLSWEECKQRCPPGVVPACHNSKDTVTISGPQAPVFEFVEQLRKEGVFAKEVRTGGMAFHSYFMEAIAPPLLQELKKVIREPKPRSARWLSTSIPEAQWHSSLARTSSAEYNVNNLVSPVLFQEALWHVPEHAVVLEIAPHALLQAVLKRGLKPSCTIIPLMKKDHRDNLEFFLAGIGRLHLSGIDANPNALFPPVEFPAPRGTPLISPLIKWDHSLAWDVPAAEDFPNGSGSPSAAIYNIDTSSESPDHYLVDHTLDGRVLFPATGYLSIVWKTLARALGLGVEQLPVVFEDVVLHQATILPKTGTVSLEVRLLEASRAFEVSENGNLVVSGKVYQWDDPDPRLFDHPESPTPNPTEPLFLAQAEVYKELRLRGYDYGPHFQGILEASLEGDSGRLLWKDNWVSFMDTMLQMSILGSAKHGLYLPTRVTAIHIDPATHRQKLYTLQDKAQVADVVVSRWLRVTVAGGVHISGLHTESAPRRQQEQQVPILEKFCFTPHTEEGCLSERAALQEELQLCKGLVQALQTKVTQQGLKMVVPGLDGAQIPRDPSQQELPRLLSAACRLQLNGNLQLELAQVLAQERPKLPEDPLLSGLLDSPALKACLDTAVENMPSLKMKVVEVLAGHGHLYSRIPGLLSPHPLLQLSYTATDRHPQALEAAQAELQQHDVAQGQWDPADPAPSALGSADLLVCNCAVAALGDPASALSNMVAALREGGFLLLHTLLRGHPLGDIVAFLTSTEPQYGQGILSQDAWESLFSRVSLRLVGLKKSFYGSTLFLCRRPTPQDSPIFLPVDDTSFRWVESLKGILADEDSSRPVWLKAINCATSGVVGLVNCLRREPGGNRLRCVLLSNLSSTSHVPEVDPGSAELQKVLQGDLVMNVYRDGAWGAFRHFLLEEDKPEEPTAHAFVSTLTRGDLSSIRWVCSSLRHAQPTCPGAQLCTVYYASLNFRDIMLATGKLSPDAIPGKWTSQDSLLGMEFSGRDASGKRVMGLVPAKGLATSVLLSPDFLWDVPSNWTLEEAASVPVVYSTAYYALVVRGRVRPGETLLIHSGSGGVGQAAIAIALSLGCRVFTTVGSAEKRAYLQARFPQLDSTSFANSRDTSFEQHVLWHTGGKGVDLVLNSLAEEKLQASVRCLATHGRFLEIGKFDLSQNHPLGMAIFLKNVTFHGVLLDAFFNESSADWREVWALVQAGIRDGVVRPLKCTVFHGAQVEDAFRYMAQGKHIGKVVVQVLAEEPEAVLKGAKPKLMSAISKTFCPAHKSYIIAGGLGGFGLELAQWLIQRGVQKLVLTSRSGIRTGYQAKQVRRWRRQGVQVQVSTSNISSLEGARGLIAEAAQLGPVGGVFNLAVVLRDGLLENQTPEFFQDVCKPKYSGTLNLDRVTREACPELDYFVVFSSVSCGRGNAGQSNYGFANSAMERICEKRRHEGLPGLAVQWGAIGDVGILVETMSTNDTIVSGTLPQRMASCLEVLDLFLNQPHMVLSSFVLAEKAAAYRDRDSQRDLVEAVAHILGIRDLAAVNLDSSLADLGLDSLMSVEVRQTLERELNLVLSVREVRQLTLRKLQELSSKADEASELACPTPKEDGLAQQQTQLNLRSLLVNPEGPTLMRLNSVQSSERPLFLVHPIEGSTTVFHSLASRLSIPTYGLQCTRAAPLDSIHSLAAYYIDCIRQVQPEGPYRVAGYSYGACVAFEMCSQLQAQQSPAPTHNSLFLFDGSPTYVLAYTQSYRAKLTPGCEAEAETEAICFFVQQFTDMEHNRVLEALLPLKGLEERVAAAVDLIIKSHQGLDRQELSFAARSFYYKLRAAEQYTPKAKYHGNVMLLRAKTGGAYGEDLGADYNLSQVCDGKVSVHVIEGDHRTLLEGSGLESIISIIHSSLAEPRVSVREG

[6] = reduction of Shn3 3'UTR firefly luciferase signal, dose response, Schnurri-3 inhibitor project, cell-based, Clone20 osteoblasts, cherry-pick, set 2 (AID 720490); type: functional;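 note: actives lower the luminescence signal as inhibitors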
[7] = biological target: T2, Microphthalmia-associated transcription factor (Homo sapiens, UniProt O75030); assay: TRPM1 promoter luciferase signal decrease, dose response, MITF inhibitor project, cell-based, SK-MEL-5, cherry-picked, set 3 (AID 493073); type: functional
T2 sequence (O75030 whole entry): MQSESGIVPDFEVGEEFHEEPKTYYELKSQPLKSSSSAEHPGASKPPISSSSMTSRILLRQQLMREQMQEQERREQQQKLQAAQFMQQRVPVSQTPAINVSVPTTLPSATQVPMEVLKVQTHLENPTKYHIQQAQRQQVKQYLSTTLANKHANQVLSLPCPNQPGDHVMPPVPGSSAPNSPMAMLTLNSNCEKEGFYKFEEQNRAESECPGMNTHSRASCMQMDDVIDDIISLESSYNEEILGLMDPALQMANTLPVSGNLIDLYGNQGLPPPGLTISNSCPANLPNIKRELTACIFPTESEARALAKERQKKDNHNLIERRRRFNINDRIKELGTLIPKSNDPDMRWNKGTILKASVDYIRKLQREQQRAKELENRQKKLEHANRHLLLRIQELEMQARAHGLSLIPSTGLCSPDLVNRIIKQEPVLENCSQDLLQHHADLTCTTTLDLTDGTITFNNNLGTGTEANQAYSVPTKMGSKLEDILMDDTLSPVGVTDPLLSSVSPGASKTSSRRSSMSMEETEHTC

[8] = reduction of endogenous Shn3 mRNA, dose response, qPCR, Clone20 cells, cherry-pick (AID 743415); type: functional, cell-based
[9] = control 3'UTR Renilla luciferase suppression, dose response, counter-screen for Shn3 inhibitor project, cell-based, Clone20-Shn3RL, cherry-picked (AID 624133); type: functional
Protein RecA = biological target: T3, Protein RecA (Mycobacterium tuberculosis, UniProt P9WHJ3); assay: Fluorescence Cell-Free Homogeneous Dose Retest to Identify Inhibitors of RecA-Intein Splicing Activity. [Related pubchem assays (depositor defined):AID2097, AID2223, AID489010, AID492950]; type: functional
T3 sequence (P9WHJ3 whole entry): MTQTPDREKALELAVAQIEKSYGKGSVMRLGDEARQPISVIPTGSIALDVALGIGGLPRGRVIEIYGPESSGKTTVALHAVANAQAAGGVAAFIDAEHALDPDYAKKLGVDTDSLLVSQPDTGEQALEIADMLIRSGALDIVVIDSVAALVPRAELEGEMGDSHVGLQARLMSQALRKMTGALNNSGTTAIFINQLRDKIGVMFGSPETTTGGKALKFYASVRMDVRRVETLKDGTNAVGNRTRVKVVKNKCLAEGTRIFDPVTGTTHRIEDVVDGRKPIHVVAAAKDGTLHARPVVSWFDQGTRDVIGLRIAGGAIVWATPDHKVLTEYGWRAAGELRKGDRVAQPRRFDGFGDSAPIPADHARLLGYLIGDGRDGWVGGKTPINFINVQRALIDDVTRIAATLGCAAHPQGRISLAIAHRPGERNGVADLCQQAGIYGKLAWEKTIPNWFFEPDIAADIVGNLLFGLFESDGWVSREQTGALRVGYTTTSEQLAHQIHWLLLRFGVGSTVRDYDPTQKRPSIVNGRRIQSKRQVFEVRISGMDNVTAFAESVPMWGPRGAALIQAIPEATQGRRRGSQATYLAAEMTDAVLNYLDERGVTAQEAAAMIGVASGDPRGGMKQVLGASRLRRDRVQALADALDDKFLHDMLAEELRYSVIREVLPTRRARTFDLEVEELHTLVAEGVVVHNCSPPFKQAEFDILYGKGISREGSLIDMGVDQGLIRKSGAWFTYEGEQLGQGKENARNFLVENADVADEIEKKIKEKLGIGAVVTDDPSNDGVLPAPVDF

Beta Lactamase = Beta Lactamase (Pseudomonas aeruginosa, UniProt Q932Y6); assay: beta-lactamase reporter inhibitor potency, dose response, artefact control for NOD2-RIPK2 interaction inhibitor project, BLA reporter cells, FRET fluorescence (AID 651552); type: functional, cell-based
Sequence of Beta Lactamase (Q932Y6 whole entry, the tested form may be a part): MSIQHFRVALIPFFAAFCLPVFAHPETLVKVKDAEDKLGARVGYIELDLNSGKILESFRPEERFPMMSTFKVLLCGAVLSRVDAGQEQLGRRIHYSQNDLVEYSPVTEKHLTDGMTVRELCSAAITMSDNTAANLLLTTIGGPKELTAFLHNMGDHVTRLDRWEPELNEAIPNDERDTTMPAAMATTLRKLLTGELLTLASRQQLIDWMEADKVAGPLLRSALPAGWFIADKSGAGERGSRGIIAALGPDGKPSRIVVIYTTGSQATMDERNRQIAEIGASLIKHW

Fatty acid synthase [10] = biological target: T1, Fatty acid synthase; assay: FAS thioesterase domain inhibitors, dose response, biochemical, kinetic fluorescence intensity (AID 624326); type: functional;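 note: rate of fluorescence rise from hydrolysis of a fluorogenic O-methyl fluorescein ester substrate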
[11] = biological target: T4, Replicative DNA helicase DnaB (Mycobacterium tuberculosis, UniProt P9WMR3); assay: DnaB intein splicing inhibitors, dose response, biochemical, cell-free fluorescence (AID 449749); type: functional
T4 sequence (P9WMR3 whole entry): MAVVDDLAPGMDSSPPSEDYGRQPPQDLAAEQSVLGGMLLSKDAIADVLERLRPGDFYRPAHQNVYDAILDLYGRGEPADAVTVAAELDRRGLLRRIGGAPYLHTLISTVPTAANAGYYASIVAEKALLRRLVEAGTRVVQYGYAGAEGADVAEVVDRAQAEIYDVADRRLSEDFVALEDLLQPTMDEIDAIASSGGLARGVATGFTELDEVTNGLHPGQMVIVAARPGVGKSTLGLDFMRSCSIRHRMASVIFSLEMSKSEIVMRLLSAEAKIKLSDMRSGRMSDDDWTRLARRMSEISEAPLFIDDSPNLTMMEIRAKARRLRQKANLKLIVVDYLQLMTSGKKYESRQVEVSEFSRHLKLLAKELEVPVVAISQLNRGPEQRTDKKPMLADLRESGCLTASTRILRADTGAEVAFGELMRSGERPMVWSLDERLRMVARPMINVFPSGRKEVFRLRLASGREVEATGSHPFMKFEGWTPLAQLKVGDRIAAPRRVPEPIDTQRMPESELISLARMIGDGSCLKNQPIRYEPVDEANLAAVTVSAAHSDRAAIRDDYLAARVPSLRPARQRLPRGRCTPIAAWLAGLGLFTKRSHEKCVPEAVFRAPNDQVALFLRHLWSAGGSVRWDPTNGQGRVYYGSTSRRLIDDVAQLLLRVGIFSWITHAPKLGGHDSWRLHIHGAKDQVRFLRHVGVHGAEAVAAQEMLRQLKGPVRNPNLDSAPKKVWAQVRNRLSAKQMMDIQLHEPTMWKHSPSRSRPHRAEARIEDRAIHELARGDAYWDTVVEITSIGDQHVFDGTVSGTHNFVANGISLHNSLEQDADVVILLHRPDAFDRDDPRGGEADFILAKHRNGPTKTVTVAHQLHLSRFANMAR

[12] = HepG2 cell cytotoxicity, dose response, cytotoxicity control for Shn3 inhibitor project, CellTiter-Glo, cherry-picked (AID 624134); type: functional, cell-based
[13] = Fluorescence-based cell-based high throughput dose response assay for inhibitors of the interaction of nucleotide-binding oligomerization domain containing 2 (NOD2) and the receptor-interacting serine-threonine kinase 2 (RIPK2).; type: functional; conditions: Homo sapiens
[14] = Shn3 3'UTR reporter inhibitors, dose response, cell-based, Clone20 osteoblasts, firefly luciferase, cherry-picked (AID 624132); type: functional;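 note: firefly luciferase luminescence from reporter carrying the Shn3 3'UTR in osteoblasts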
Protein Wnt-3a = Protein Wnt-3a (Mus musculus, UniProt P27467); assay: SAR analysis of small molecule antagonists of Gli-SUFU in a Wnt3a luminescent reporter assay.; type: functional
Sequence of Protein Wnt-3a (P27467 whole entry): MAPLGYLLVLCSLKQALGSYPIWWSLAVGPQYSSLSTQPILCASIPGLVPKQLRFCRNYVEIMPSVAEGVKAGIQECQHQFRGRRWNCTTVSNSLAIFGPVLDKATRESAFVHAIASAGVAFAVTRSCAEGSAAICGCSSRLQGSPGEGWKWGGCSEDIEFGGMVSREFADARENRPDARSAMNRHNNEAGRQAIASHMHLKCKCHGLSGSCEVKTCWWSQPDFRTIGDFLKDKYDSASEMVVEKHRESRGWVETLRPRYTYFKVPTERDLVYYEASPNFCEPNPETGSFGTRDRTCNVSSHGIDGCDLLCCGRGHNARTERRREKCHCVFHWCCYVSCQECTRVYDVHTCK

[15] = inhibitors of non-replicating M. tuberculosis, dose response, luciferase, dry powder (AID 651620); type: functional; conditions: Mycobacterium tuberculosis
[16] = inhibitors of non-replicating M. tuberculosis, dose response, luciferase, dry powder (AID 651619); type: functional; conditions: Mycobacterium tuberculosis
[17] = T. cruzi growth inhibition in host cells, dose response, cell-based, plate reader, dry powder, set 2 (AID 652275); type: functional
[18] = A Cell-Based Confirmatory Screen for Compounds that Inhibit VEEV, TC-83 (3).; type: functional
[19] = NIH/3T3 fibroblast cytotoxicity, dose response, cytotoxicity control, cell-based, plate reader, dry powder, set 2 (AID 652280); type: functional; conditions: NIH3T3

Sequence of Paired box protein Pax-8 (Q06710 whole entry): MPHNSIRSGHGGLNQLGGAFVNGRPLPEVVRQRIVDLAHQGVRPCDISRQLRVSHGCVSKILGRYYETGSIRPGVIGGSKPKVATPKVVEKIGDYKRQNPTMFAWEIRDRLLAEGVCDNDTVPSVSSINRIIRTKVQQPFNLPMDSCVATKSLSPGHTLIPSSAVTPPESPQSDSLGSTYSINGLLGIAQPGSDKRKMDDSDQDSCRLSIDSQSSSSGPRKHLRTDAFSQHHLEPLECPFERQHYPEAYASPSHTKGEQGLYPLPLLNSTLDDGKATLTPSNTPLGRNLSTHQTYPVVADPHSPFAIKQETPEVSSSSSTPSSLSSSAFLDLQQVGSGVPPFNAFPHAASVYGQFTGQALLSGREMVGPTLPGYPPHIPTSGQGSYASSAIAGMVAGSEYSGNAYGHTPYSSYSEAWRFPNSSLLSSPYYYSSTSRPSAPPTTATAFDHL

For C[C@H]1CCCCO[C@H](CN(C)C(=O)Nc2ccc(C(F)(F)F)cc2)[C@@H](C)CN([C@@H](C)CO)C(=O)c2cc(NS(=O)(=O)c3ccc(Cl)cc3)ccc2O1, the AC50 (Paired box protein Pax-8) was 4.68 µM (active), the AC50 [1] was 37.2 µM (active) and the AC50 [2] was 51.5 µM (active). For the same compound, the AC50 [3] was 20.1 µM (active) and the AC50 [4] was 47.6 µM (active).
In the case of CC(C)[C@H](NC(=O)OC(C)(C)C)c1nnc(S(=O)(=O)Cc2c(F)cccc2Cl)o1, the IC50 (Fatty acid synthase [5]) is reported as 3.02 µM (active), the AC50 [6] is reported as 3.07 µM (active) and the AC50 [7] is reported as 11.6 µM (active). The AC50 [8] was 12 µM (active), the AC50 [9] was 13.5 µM (active) and the EC50 (Protein RecA) was 9.61 µM (active). The IC50 (Beta Lactamase) was 10.5 µM (inactive), the IC50 (Fatty acid synthase [10]) was 1.61 µM (active) and the AC50 [11] was 4.9 µM (active). The AC50 [12] was 61.7 µM (active), the IC50 [13] was 1.97 µM (active) and the AC50 [14] was 1.08 µM (active).
For O=C(Nc1cc(N2CCNCC2)ncn1)c1ccccc1, the IC50 (Protein Wnt-3a) was > 21.8 µM (inactive).
In the case of Fc1ccc(-c2nnc(SCc3cn(-c4ccccc4)nn3)o2)cc1, the IC90 [15] is reported as 1 µM (active) and the IC90 [16] is reported as 1 µM (active).
For CCC(=O)N1CC[C@@H]2[C@H]1c1cc(-c3ccccc3)ccc1N(C)[C@@H]2CO, the AC50 [17] was 8.49 µM (active).
For O=C(Cc1ccccc1)Nc1nc2c(s1)CCCC2, the IC50 [18] was 9.33 µM (active).
In the case of Cc1ccccc1-c1ccc([C@H]2[C@H](CO)N3CCCCN(CC4CC4)C[C@@H]23)cc1, the AC50 [19] is reported as 3.99 µM (active).

— ChEMBL document CHEMBL1201862, “PubChem BioAssay data set” (2004)
